According to PMC7332385 (Journal of the American Society for Mass Spectrometry, 2020):
Like-named read-outs stand apart in the source and are kept apart here.

Legend:
[1] = molecular target: Cu(II)-β2m (β-2-microglobulin) (Homo sapiens, UniProt P61769); assay: CL-MS ligand titration of Cu; assay type: binding; settings: read-out: Cu(II)-β2m and EGCG Kd; DEPC (120 μM) labeling of the N-terminal amine; 30 μM β2m, 60 μM Cu(II); triplicate
β-2-microglobulin (β2m) [2] = settings: read-out: EGCG-β2m Kd; from size exclusion chromatography data; cited from earlier work
β-2-microglobulin (β2m) [3] = settings: read-out: Kd for Cu(II) bound to β2m, cited from earlier work

Sequence of Cu(II)-β2m (β-2-microglobulin) (P61769 21-119): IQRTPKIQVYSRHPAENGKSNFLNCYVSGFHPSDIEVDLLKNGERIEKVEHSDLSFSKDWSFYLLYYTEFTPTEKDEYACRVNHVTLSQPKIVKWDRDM

SMILES	Kd [1]	Kd (β-2-microglobulin (β2m) [2])	Kd (β-2-microglobulin (β2m) [3]; in the presence of EGCG)	Kd (β-2-microglobulin (β2m) [3]; without EGCG)
O=C(O[C@@H]1Cc2c(O)cc(O)cc2O[C@@H]1c1cc(O)c(O)c(O)c1)c1cc(O)c(O)c(O)c1 [EGCG, epigallocatechin gallate]	12 ± 5 µM	6 µM		
O=S(=O)([O-])[O-].[Cu+2] [Cu(II), copper sulfate]			49 µM	3 µM
